{"source": "paper PMC11278233", "about": "“The Composition of Triterpene Glycosides in the Sea Cucumber Psolus peronii: Anticancer Activity of the Glycosides against Three Human Breast Cancer Cell Lines and Quantitative Structure–Activity Relationships (QSAR)” (Marine Drugs, 2024)", "key": {"[1]": {"tested_on": "human breast cancer cell line T-47D", "assay": "cells", "format": "cell-based", "settings": "for Selectivity Index T-47D: ratio of IC50 for healthy (MCF-10A) and cancer cells"}, "MCF-7 cells [2]": {"tested_on": "MCF-7 cells", "assay": "Colonogenic (colony formation) assay, MCF-7", "format": "cell-based", "settings": "Homo sapiens, MCF7, 336 h, 14 days", "method": "(§1) The cancer cells (MDA-MB-231, MCF-7 and T-47D lines) were cultured on 6-well plates at a density of 1 × 10^3 per well in control media (MEM media, 10% FBS, 10,000 U/mL of penicillin and […] of streptomycin) or in media supplemented with different concentrations of the glycosides. The cells were incubated for 14 days at 37 °C in a 5% CO2 humidified incubator. Then, the colonies were fixed with methanol (25 min), stained with a 0.5% solution of crystal violet (25 min), washed with H2O and dried in air. Counting of the grown colonies was carried out using a BIO-PRINT-Cx4 Edge-Fixed Pad-Container (Vilber, Collegien, France) device and using the software Bio-Vision SOFTWARE User and service manual-v18.01 (Vilber, Collegien, France). The results are presented as % of colony inhibition in relation to the control."}, "MDA-MB-231 cells [3]": {"tested_on": "MDA-MB-231 cells", "assay": "Colonogenic (colony formation) assay, MDA-MB-231", "format": "cell-based", "settings": "Homo sapiens, 336 h, 2 μM, 14 days, read-out: inhibition of the growth of colonies", "method": "as §1"}, "human erythrocytes": {"tested_on": "human erythrocytes", "assay": "Hemolytic activity", "format": "cell-based", "settings": "Erythrocyte, 1 h at 37 °C, lysis of 50% of erythrocytes", "method": "A total of 450 g of human blood (B(III) Rh+) was used to obtain erythrocytes by centrifuging it three times for 5 min with phosphate-buffered saline (PBS) (pH 7.4) at 4 °C on the centrifuge LABOFUGE 400R (Heraeus, Hanau, Germany). Ice-cold PBS (pH 7.4) was used for resuspension of the erythrocyte residue to a final optical density of 1.5 at 700 nm, which was kept on ice. Then, 20 µL of the tested compound solutions was added to 180 µL of the erythrocyte suspension in V-bottom 96-well plates and exposed for 1 h at 37 °C. The layers were separated by centrifugation at 900 g for 10 min on the laboratory centrifuge LMC-3000 (Biosan, Riga, Latvia). A total of 100 µL of the supernatant was carefully decanted and transferred into a new flat plate. The values of erythrocyte lysis were measured on a microplate photometer Multiskan FC (Thermo Fisher Scientific, Waltham, MA, USA) at λ = 570 nm as the hemoglobin concentration in the supernatant. […] All the experiments were carried out in triple repetitions; p ≤ 0.05."}, "in vitro": {"assay": "in vitro", "format": "cell-based, human", "settings": "human"}, "[4]": {"tested_on": "non-transformed epithelial cells of the mammary gland MCF-10A", "assay": "in vitro", "format": "cell-based, human"}, "T-47D cells": {"tested_on": "T-47D cells", "assay": "Colonogenic (colony formation) assay, T-47D", "format": "cell-based, human", "settings": "1 μM, 14 days", "method": "as §1"}, "MCF-7 cells [5]": {"tested_on": "MCF-7 cells", "assay": "Wound healing (scratch) assay, MCF-7", "format": "cell-based, human", "settings": "1 and 2 μM, within 48 h, control migrated by 84.60 ± 2.12%", "method": "(§2) To analyze the influence of the tested compounds on tumor cell migration, MCF-7 and MDA-MB-231 (5 × 10^5) cells attached to the plate’s plastic bottom were separated using a silicone insert from special migration plates (Culture-insert 2Well 24, ibiTreat). When the insert was removed, a gap of […] (according to the manufacturer’s data) between the cells was left. After 24 h, the cells were washed twice with PBS to remove cell debris and floating cells, treated with 1 and 2 μM of psolusosides A (2) and L (6) and placed in the real-time live cell imaging system Juli Stage (NanoEntek, Seoul, South Korea). Cells treated with the culture medium only were used as the control. The cell migration was analyzed in real time (15 min for each cycle). For the MDA-MB-231 cells, observations were carried out for 12 h (until complete healing of the wound area in the control); for MCF-7 cells, this time was 48 h. The results were processed using the program Juli^TM Stat (NanoEntek, South Korea)."}, "MDA-MB-231 cells [6]": {"tested_on": "MDA-MB-231 cells", "assay": "Wound healing (scratch) assay, MDA-MB-231", "format": "cell-based, human", "settings": "2 μM, within 12 h, control 99.83 ± 0.08%", "method": "as §2"}, "[7]": {"tested_on": "human breast cancer cell line MCF-7", "assay": "cells", "format": "cell-based", "settings": "for Selectivity Index MCF-7: ratio of IC50 for healthy (MCF-10A) and cancer cells"}, "[8]": {"tested_on": "triple-negative human breast cancer cell line MDA-MB-231", "assay": "cells", "format": "cell-based", "settings": "for IC50: Homo sapiens; for Selectivity Index MDA-MB-231: ratio of IC50 for healthy (MCF-10A) and cancer cells"}}, "note": "Where two headings read alike, the source gives them in different places.", "data": [{"smiles": "C=C(C)CCC[C@]1(C)OC(=O)[C@]23CC=C4[C@@H](CC[C@H]5C(C)(C)[C@@H](O[C@@H]6OC[C@@H](O[C@@H]7O[C@H](COS(=O)(=O)[O-])[C@@H](O)[C@H](O)[C@H]7O)[C@H](O)[C@H]6O[C@@H]6O[C@H](C)[C@@H](O[C@@H]7O[C@H](COS(=O)(=O)[O-])[C@@H](O)[C@H](O[C@@H]8O[C@H](COS(=O)(=O)[O-])[C@@H](O)[C@H](OC)[C@H]8O)[C@H]7O)[C@H](O)[C@H]6O)CC[C@]45C)[C@]2(C)CC(=O)[C@@H]31.[Na+].[Na+].[Na+]", "note": "[psolusoside L (6), psolusoside L]", "values": [{"measurement": "IC50", "setting": "[1]; Homo sapiens, T47D, 24 h, read-out: Cytotoxicity, IC50 µM T-47D", "result": "5.45 ± 0.04", "unit": "µM"}, {"measurement": "Selectivity Index T-47D", "setting": "[1]; 24 h of exposition", "result": 6.07}, {"measurement": "Selectivity Index T-47D", "setting": "[1]; 48 h of exposition", "result": 1.25}, {"measurement": "Selectivity Index T-47D", "setting": "[1]; 72 h of exposition", "result": 0.91}, {"measurement": "inhibition at 1 µM", "setting": "MCF-7 cells [2]; 1 μM", "result": "19.6 ± 0.24", "unit": "%"}, {"measurement": "inhibition at 2 µM", "setting": "MCF-7 cells [2]; 2 μM", "result": "89.67 ± 0.28", "unit": "%"}, {"measurement": "inhibition at 5 µM", "setting": "MCF-7 cells [2]; 5 μM", "result": "97.83 ± 0.25", "unit": "%"}, {"measurement": "inhibition at 2 µM", "setting": "MDA-MB-231 cells [3]", "result": "90.4 ± 0.92", "unit": "%"}, {"measurement": "IC50", "setting": "human erythrocytes", "result": "1.83 ± 0.14", "unit": "µM"}, {"measurement": "IC50 at 24 h", "setting": "in vitro", "result": "33.08 ± 0.29", "unit": "µM"}, {"measurement": "cytotoxicity to non-transformed MCF-10A cells (result in words)", "setting": "[4]", "result": "slightly cytotoxic"}, {"measurement": "growth of colonies (result in words)", "setting": "T-47D cells", "result": "completely blocked"}, {"measurement": "reduction of the migration of cells to the scratch area", "setting": "MCF-7 cells [5]", "result": "33–42%"}, {"measurement": "overgrowth of the wound area (migration)", "setting": "MDA-MB-231 cells [6]", "result": "6.03 ± 0.02", "unit": "%"}, {"measurement": "IC50", "setting": "[7]; Homo sapiens, MCF7, 24 h, read-out: Cytotoxicity, IC50 µM MCF-7", "result": "13.7 ± 0.31", "unit": "µM"}, {"measurement": "Selectivity Index MCF-7", "setting": "[7]; 24 h of exposition", "result": 2.41}, {"measurement": "Selectivity Index MCF-7", "setting": "[7]; 48 h of exposition", "result": 1.33}, {"measurement": "Selectivity Index MCF-7", "setting": "[7]; 72 h of exposition", "result": 0.66}, {"measurement": "IC50", "setting": "[8]; MDA-MB-231, 24 h, read-out: Cytotoxicity, IC50 µM MDA-MD-231", "result": "6.39 ± 0.3", "unit": "µM"}, {"measurement": "IC50", "setting": "[8]; MDA-MB-231, MTT assay, 48 h incubation, read-out: IC50 against MDA-MB-231 cells (antiproliferative effect)", "result": "1.67 ± 0.16", "unit": "µM"}, {"measurement": "IC50", "setting": "[8]; MDA-MB-231, MTT assay, 72 h incubation, read-out: IC50 against MDA-MB-231 cells (antiproliferative effect)", "result": "1.24 ± 0.02", "unit": "µM"}, {"measurement": "Selectivity Index MDA-MB-231", "setting": "[8]; 24 h of exposition", "result": 5.18}, {"measurement": "Selectivity Index MDA-MB-231", "setting": "[8]; 48 h of exposition", "result": 5.83}, {"measurement": "Selectivity Index MDA-MB-231", "setting": "[8]; 72 h of exposition", "result": 4.56}]}]}
